Reference: US20240270720A1, “INDAZOLE YL BENZIMIDAZOLE DERIVATIVE OR PHARMACEUTICALLY ACCEPTABLE SALT THEREOF, AND USE THEREOF” (INDUSTRY-UNIVERSITY COOPERATION FOUNDATION HANYANG …, priority 2021, published 2024)

Experiments:
FLT3 (ITD)-NPOS = FLT3 (ITD)-NPOS (Homo sapiens, UniProt P36888); assay: Kinase HotSpot radiometric kinase assay (Reaction Biology); type: biochemical; details: single dose 1 μM
Protocol: Reaction Biology Corp. Kinase HotSpot SM service (www.reactionbiology.com) was used to determine IC50 values for all compounds and kinase profiles. […] The reaction was initiated by adding the Mg-ATP mixture. After incubation at room temperature for 40 minutes, the reaction was stopped by adding 5 μL of a 3% phosphoric acid solution. Thereafter, 10 μL of the reactant was spotted on a P30 filter mat and washed three times for 5 minutes in 75 mM phosphoric acid and once in methanol before drying and scintillation counting.

FLT3 (R595_E596 ins EY) = target: T1, FLT3 (R595_E596 ins EY) (Homo sapiens, UniProt P36888, INS595EY); assay: as above; type: biochemical
T1 construct: purchased Reaction Biology Corp. (Kinase HotSpot service)
Protocol: (§1) Reaction Biology Corp. Kinase HotSpot SM service (www.reactionbiology.com) was used to determine IC50 values for all compounds and kinase profiles. The analysis protocol was as follows: In a final reaction volume of 25 μL, a peptide substrate, [[sequence]], 5 μM, ATP 10 μM, and FLT3(h) (5 to 10 mU) were incubated with 25 mM Tris pH 7.5, 0.02 mM EGTA, 0.66 mg/mL myelin basic protein, 10 mM Mg acetate and [γ-33P-ATP] (a concentration of approximately 500 cpm/pmol was required for specific activity). The reaction was initiated by adding the Mg-ATP mixture. After incubation at room temperature for 40 minutes, the reaction was stopped by adding 5 μL of a 3% phosphoric acid solution. Thereafter, 10 μL of the reactant was spotted on a P30 filter mat and washed three times for 5 minutes in 75 mM phosphoric acid and once in methanol before drying and scintillation counting.

[1] = target: T2, FLT3 (Y591_V592 ins VDFREYEYD) (Homo sapiens, UniProt P36888, INS591VDFREYEYD); assay: as above; type: biochemical
T2 construct: purchased Reaction Biology Corp. (Kinase HotSpot service)
Protocol: as §1

FLT3-ITD = FLT3-ITD (Homo sapiens, UniProt P36888); assay: Protein kinase profiling (Kinase HotSpot); type: biochemical; details: single dose 1 μM
ABL1 = target: T3, ABL1 (Homo sapiens, UniProt P00519); assay: Protein kinase profiling (Kinase HotSpot); type: biochemical
T3 construct: purchased Reaction Biology Corp. (Kinase HotSpot service)
Protocol: as §1

AKT1 = target: T4, AKT1 (Homo sapiens, UniProt P31749); assay: Protein kinase profiling (Kinase HotSpot); type: biochemical; details: single dose 1 μM
T4 construct: purchased Reaction Biology Corp. (Kinase HotSpot service)
Protocol: as §1

ALK = target: T5, ALK (Homo sapiens, UniProt Q9UM73); assay: Protein kinase profiling (Kinase HotSpot); type: biochemical; details: single dose 1 μM
T5 construct: purchased Reaction Biology Corp. (Kinase HotSpot service)
Protocol: as §1

AXL = target: T6, AXL (Homo sapiens, UniProt P30530); assay: Protein kinase profiling (Kinase HotSpot); type: biochemical; details: single dose 1 μM
T6 construct: purchased Reaction Biology Corp. (Kinase HotSpot service)
Protocol: as §1

AXL (R499C) = target: T7, AXL (R499C) (Homo sapiens, UniProt P30530, R499C); assay: Protein kinase profiling (Kinase HotSpot); type: biochemical; details: single dose 1 μM
T7 construct: purchased Reaction Biology Corp. (Kinase HotSpot service)
Protocol: as §1

BRAF (V599E) = target: T8, BRAF (V599E) (Homo sapiens, UniProt P15056, V600E); assay: Protein kinase profiling (Kinase HotSpot); type: biochemical
T8 construct: purchased Reaction Biology Corp. (Kinase HotSpot service)
Protocol: as §1

BTK = target: T9, BTK (Homo sapiens, UniProt Q06187); assay: Protein kinase profiling (Kinase HotSpot); type: biochemical; details: single dose 1 μM
T9 construct: purchased Reaction Biology Corp. (Kinase HotSpot service)
Protocol: as §1

c-MER = target: T10, c-MER (Homo sapiens, UniProt Q12866); assay: Protein kinase profiling (Kinase HotSpot); type: biochemical; details: single dose 1 μM
T10 construct: purchased Reaction Biology Corp. (Kinase HotSpot service)
Protocol: (§2) The analysis protocol was as follows: In a final reaction volume of 25 μL, a peptide substrate, [[sequence]], 5 μM, ATP 10 μM, and FLT3(h) (5 to 10 mU) were incubated with 25 mM Tris pH 7.5, 0.02 mM EGTA, 0.66 mg/mL myelin basic protein, 10 mM Mg acetate and [γ-33P-ATP] (a concentration of approximately 500 cpm/pmol was required for specific activity). The reaction was initiated by adding the Mg-ATP mixture. After incubation at room temperature for 40 minutes, the reaction was stopped by adding 5 μL of a 3% phosphoric acid solution. Thereafter, 10 μL of the reactant was spotted on a P30 filter mat and washed three times for 5 minutes in 75 mM phosphoric acid and once in methanol before drying and scintillation counting.

c-MET = target: T11, c-MET (Homo sapiens, UniProt P08581); assay: Protein kinase profiling (Kinase HotSpot); type: biochemical; details: single dose 1 μM
T11 construct: purchased Reaction Biology Corp. (Kinase HotSpot service)
Protocol: as §2

c-Src = target: T12, c-Src (Homo sapiens, UniProt P12931); assay: Protein kinase profiling (Kinase HotSpot); type: biochemical; details: single dose 1 μM
T12 construct: purchased Reaction Biology Corp. (Kinase HotSpot service)
Protocol: as §2

CAMKK1 = target: T13, CAMKK1 (Homo sapiens, UniProt Q8N5S9); assay: Protein kinase profiling (Kinase HotSpot); type: biochemical
T13 construct: purchased Reaction Biology Corp. (Kinase HotSpot service)
Protocol: as §1

EGFR = target: T14, EGFR (Homo sapiens, UniProt P00533); assay: Protein kinase profiling (Kinase HotSpot); type: biochemical; details: single dose 1 μM
T14 construct: purchased Reaction Biology Corp. (Kinase HotSpot service)
Protocol: as §2

ERK1 = target: T15, ERK1 (Homo sapiens, UniProt P27361); assay: Protein kinase profiling (Kinase HotSpot); type: biochemical
T15 construct: purchased Reaction Biology Corp. (Kinase HotSpot service)
Protocol: as §2

FMS = target: T16, FMS (Homo sapiens, UniProt P07333); assay: Protein kinase profiling (Kinase HotSpot); type: biochemical; details: single dose 1 μM
T16 construct: purchased Reaction Biology Corp. (Kinase HotSpot service)
Protocol: as §1

IGF1R = target: T17, IGF1R (Homo sapiens, UniProt P08069); assay: Protein kinase profiling (Kinase HotSpot); type: biochemical; details: single dose 1 μM
T17 construct: purchased Reaction Biology Corp. (Kinase HotSpot service)
Protocol: as §1

KDR/VEGFR2 = target: T18, KDR/VEGFR2 (Homo sapiens, UniProt P35968); assay: Protein kinase profiling (Kinase HotSpot); type: biochemical; details: single dose 1 μM
T18 construct: purchased Reaction Biology Corp. (Kinase HotSpot service)
Protocol: as §2

LCK = target: T19, LCK (Homo sapiens, UniProt P06239); assay: Protein kinase profiling (Kinase HotSpot); type: biochemical; details: single dose 1 μM
T19 construct: purchased Reaction Biology Corp. (Kinase HotSpot service)
Protocol: as §2

MEK1 = target: T20, MEK1 (Homo sapiens, UniProt Q02750); assay: Protein kinase profiling (Kinase HotSpot); type: biochemical; details: single dose 1 μM
T20 construct: purchased Reaction Biology Corp. (Kinase HotSpot service)
Protocol: as §2

PLK1 = target: T21, PLK1 (Homo sapiens, UniProt P53350); assay: Protein kinase profiling (Kinase HotSpot); type: biochemical; details: single dose 1 μM
T21 construct: purchased Reaction Biology Corp. (Kinase HotSpot service)
Protocol: as §2

RON/MST1R = target: T22, RON/MST1R (Homo sapiens, UniProt Q04912); assay: Protein kinase profiling (Kinase HotSpot); type: biochemical; details: single dose 1 μM
T22 construct: purchased Reaction Biology Corp. (Kinase HotSpot service)
Protocol: as §2

SYK = target: T23, SYK (Homo sapiens, UniProt P43405); assay: Protein kinase profiling (Kinase HotSpot); type: biochemical; details: single dose 1 μM
T23 construct: purchased Reaction Biology Corp. (Kinase HotSpot service)
Protocol: as §2

TRKC = target: T24, TRKC (Homo sapiens, UniProt Q16288); assay: Protein kinase profiling (Kinase HotSpot); type: biochemical
T24 construct: purchased Reaction Biology Corp. (Kinase HotSpot service)
Protocol: as §1

TYRO3/SKY = target: T25, TYRO3/SKY (Homo sapiens, UniProt Q06418); assay: Protein kinase profiling (Kinase HotSpot); type: biochemical; details: single dose 1 μM
T25 construct: purchased Reaction Biology Corp. (Kinase HotSpot service)

most other kinases = assay: Protein kinase profiling, 42 different kinases (summary); type: biochemical; details: 1 μM; kinases of the 42-kinase panel other than FLT3
Aurora A = Aurora A (Homo sapiens, UniProt O14965); assay: Protein kinase profiling (Kinase HotSpot)
Protocol: as §1

c-Kit = c-Kit (Homo sapiens, UniProt P10721); assay: Protein kinase profiling (Kinase HotSpot)
Protocol: as §1

FGFR3 = FGFR3 (Homo sapiens, UniProt P22607); assay: Protein kinase profiling (Kinase HotSpot)
Protocol: as §1

FYN = FYN (Homo sapiens, UniProt P06241); assay: Protein kinase profiling (Kinase HotSpot)
Protocol: as §1

GSK3b = GSK3b (Homo sapiens, UniProt P49841); assay: Protein kinase profiling (Kinase HotSpot)
Protocol: as §1

JAK3 = JAK3 (Homo sapiens, UniProt P52333); assay: Protein kinase profiling (Kinase HotSpot)
Protocol: as §2

LYN = LYN (Homo sapiens, UniProt P07948); assay: Protein kinase profiling (Kinase HotSpot)
Protocol: as §2

PKA = PKA (Homo sapiens, UniProt P17612); assay: Protein kinase profiling (Kinase HotSpot)
Protocol: as §2

ROS/ROS1 = ROS/ROS1 (Homo sapiens, UniProt P08922); assay: Protein kinase profiling (Kinase HotSpot)
Protocol: as §2

Chain of c-Kit (P10721 26-976): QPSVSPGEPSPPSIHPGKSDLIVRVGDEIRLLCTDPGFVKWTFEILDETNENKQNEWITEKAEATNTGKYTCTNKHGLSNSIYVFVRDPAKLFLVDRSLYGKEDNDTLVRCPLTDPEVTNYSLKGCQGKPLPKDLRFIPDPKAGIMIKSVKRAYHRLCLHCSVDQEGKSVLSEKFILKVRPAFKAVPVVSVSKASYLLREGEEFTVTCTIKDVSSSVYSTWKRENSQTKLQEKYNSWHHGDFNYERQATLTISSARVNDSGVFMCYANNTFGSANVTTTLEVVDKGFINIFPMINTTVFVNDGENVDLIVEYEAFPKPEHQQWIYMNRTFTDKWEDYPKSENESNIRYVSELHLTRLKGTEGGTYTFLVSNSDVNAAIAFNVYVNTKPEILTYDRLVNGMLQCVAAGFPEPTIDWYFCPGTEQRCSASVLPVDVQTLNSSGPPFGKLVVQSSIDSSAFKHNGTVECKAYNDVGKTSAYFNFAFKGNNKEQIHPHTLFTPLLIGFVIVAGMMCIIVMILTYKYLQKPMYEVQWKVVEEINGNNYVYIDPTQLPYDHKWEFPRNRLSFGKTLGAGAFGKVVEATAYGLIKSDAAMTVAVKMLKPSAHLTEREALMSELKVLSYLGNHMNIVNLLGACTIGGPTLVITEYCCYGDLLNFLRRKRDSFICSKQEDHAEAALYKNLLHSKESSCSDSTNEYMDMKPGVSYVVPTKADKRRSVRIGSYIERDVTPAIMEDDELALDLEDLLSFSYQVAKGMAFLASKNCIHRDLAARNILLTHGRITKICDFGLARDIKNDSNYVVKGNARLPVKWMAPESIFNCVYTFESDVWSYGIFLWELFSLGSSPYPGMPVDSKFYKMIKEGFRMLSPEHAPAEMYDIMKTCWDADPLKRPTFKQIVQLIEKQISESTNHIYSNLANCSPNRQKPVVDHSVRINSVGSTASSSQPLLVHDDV
T13 sequence (Q8N5S9 whole entry): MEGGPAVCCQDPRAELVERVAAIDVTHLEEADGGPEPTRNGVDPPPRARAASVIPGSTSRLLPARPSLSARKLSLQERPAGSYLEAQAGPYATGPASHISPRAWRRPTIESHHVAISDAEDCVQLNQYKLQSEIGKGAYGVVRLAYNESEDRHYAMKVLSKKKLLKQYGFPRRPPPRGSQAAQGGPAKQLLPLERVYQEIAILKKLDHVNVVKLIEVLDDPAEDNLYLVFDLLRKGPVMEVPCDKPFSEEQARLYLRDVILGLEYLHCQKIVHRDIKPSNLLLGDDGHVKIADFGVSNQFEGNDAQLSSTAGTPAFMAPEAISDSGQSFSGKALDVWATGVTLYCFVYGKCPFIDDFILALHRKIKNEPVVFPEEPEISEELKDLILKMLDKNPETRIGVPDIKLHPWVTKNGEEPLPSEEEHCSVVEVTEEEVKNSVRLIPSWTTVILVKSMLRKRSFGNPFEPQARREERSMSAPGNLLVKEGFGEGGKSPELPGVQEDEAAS
T3 sequence (P00519 whole entry): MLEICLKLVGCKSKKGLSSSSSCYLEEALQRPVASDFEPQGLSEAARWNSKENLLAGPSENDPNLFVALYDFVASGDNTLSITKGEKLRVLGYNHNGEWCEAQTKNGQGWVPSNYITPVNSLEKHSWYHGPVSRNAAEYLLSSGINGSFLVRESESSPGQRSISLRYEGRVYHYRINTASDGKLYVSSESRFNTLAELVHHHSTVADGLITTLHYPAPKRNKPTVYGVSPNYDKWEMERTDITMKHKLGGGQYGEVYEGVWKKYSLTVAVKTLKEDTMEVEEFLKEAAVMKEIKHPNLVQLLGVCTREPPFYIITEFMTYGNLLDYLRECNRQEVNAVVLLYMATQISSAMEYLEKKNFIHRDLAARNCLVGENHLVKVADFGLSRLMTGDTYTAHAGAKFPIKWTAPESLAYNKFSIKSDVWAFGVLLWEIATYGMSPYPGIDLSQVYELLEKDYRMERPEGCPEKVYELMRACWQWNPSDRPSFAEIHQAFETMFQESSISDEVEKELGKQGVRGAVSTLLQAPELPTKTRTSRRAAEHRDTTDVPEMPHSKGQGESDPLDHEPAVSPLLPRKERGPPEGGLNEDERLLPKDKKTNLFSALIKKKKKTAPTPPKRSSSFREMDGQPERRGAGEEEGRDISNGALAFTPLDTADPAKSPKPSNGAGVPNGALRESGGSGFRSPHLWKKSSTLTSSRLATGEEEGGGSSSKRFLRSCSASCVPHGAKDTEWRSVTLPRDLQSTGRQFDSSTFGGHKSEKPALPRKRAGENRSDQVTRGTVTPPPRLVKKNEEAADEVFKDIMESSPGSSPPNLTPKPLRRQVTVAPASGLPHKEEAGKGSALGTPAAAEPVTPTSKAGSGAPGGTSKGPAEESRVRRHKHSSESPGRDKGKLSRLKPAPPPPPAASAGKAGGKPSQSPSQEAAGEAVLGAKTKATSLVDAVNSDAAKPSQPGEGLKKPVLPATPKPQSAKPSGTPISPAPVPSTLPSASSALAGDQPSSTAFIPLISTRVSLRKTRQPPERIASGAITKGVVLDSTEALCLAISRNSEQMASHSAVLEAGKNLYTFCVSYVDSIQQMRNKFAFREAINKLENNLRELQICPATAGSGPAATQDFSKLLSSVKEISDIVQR
T2 sequence (P36888 with tags, fused parts or gaps with the stated changes limits assumed): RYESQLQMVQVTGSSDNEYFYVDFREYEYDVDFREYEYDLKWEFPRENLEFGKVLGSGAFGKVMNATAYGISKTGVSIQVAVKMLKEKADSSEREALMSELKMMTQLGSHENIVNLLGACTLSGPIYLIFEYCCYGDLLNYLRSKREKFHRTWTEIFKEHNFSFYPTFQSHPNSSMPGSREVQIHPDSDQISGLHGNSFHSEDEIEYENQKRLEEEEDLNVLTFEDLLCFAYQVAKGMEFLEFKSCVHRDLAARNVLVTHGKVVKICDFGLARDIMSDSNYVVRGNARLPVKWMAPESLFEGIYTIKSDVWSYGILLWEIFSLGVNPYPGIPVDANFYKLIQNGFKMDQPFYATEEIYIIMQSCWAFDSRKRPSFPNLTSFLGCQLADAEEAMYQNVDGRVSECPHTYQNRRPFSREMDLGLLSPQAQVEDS
T1 sequence (P36888 with tags, fused parts or gaps INS595EY limits assumed): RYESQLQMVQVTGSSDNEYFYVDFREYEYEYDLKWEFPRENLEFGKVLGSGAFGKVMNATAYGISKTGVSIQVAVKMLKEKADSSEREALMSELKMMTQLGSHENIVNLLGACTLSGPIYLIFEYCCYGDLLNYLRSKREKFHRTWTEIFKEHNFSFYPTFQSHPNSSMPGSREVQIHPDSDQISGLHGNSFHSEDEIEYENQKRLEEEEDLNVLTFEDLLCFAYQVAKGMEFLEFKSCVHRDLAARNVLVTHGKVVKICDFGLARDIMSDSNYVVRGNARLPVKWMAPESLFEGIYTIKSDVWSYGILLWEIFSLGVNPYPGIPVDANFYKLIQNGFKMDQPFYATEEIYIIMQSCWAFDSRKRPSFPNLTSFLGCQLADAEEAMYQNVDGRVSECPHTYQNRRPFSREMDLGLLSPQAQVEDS
T24 sequence (Q16288 32-839): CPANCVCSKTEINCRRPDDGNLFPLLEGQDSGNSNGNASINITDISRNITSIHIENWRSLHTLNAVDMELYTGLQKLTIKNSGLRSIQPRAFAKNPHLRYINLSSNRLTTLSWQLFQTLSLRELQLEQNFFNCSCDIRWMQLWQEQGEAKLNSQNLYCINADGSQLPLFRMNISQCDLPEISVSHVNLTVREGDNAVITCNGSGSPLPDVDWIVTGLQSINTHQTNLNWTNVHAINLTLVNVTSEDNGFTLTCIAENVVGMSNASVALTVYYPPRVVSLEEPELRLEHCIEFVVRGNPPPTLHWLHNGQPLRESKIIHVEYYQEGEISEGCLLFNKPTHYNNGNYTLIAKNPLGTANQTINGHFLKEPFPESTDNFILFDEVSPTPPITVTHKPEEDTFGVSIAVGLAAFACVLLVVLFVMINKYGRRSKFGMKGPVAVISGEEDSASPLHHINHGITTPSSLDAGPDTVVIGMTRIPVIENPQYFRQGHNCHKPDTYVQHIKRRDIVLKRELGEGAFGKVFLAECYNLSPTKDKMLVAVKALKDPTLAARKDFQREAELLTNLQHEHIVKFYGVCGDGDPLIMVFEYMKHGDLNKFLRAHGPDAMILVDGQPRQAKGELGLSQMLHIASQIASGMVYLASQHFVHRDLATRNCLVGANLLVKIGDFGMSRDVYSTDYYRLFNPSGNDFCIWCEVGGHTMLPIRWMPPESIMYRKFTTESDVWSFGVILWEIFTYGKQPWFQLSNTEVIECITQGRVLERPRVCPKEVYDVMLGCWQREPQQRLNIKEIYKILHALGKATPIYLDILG
T12 sequence (P12931 whole entry): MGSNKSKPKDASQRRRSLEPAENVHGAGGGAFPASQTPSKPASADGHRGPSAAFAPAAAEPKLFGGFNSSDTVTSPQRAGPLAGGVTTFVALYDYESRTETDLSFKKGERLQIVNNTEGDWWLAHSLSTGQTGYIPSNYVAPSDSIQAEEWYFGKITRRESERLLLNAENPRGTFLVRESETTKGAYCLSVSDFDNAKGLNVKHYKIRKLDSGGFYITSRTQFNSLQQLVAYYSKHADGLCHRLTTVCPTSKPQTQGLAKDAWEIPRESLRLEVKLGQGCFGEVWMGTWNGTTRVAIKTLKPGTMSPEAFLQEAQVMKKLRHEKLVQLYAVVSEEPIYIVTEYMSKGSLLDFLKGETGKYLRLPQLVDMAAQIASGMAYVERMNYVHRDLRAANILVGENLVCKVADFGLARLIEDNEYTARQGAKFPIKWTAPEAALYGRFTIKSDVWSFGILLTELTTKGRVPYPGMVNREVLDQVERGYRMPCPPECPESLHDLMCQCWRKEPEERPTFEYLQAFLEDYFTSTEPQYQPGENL

Which results are given for `CCN1CCN(Cc2cc(C(=O)Nc3ccc4[nH]c(-c5ccc6cn[nH]c6c5)nc4c3)cc(C(F)(F)F)c2)CC1` [Compound 8r, N-(2-(1H-indazol-6-yl)-1H-benzo[di]imidazol-5-yl)-3-((4-ethylpiperazin-1-yl)methyl)-5-(trifluoromethyl)benzamide]?
% Inhibition (FLT3 (ITD)-NPOS): 88.0%; IC50 (FLT3 (R595_E596 ins EY)): 24.8 nM; inhibition at 1 µM (FLT3 (R595_E596 ins EY); FLT3 (R595_E596insEY), single dose 1 μM): 93.9%; inhibition at 1 µM ([1]; FLT3 (Y591_V592ins[…]), single dose 1 μM): 90.9%; IC50 ([1]; read-out: IC50 FLT3 (Y591_V592 ins VDFREYEYD)): 49.5 nM; % Inhibition (FLT3-ITD): 88.0%; inhibition at 1 µM (ABL1; ABL1, single dose 1 μM): 18.4%; IC50 (ABL1; Table 4): 3090 nM; inhibition at 1 µM (AKT1): 3.09%; inhibition at 1 µM (ALK): 7.5%; inhibition at 1 µM (AXL): 1.88%; inhibition at 1 µM (AXL (R499C)): 6.64%; inhibition at 1 µM (BRAF (V599E)): 1%; inhibition at 1 µM (BTK): 17.5%; inhibition at 1 µM (c-MER): 7.3%; inhibition at 1 µM (c-MET): 6.53%; inhibition at 1 µM (c-Src): 1.94%; inhibition at 1 µM (CAMKK1; CAMKK1, single dose 1 μM): 32.5%; IC50 (CAMKK1; Table 4): 395 nM; inhibition at 1 µM (EGFR): 0.274%; inhibition at 1 µM (ERK1): 0%; inhibition at 1 µM (FMS): 0.531%; inhibition at 1 µM (IGF1R): 6.14%; inhibition at 1 µM (KDR/VEGFR2): 7.12%; inhibition at 1 µM (LCK): 0%; inhibition at 1 µM (MEK1): 5.69%; inhibition at 1 µM (PLK1): 5.39%; inhibition at 1 µM (RON/MST1R): 6.99%; inhibition at 1 µM (SYK): 6.01%; inhibition at 1 µM (TRKC; TRKC, single dose 1 μM): 48.3%; IC50 (TRKC; Table 4): 1520 nM; inhibition at 1 µM (TYRO3/SKY): 9.76%; inhibitory activity for most other kinases (most other kinases): less than 20%; melting point: 265 to 267 °C; inhibition at 1 µM (Aurora A): 7.47%; inhibition at 1 µM (c-Kit): 19%; IC50 (c-Kit; read-out: IC50 c-Kit, Table 4): 4570 nM; inhibition at 1 µM (FGFR3): 0%; inhibition at 1 µM (FYN): 18%; inhibition at 1 µM (GSK3b): 7.25%; inhibition at 1 µM (JAK3): 6.42%; inhibition at 1 µM (LYN): 7.4%; inhibition at 1 µM (PKA): 7.34%; inhibition at 1 µM (ROS/ROS1): 7.4%
